# In patent publication US6506339B1, “Method of sterilization” (Biomedical Design, Inc., priority 1997, dated 2003):
# How the values were obtained:
# [1] = system: Bacillus subtilis (niger) spores; assay: Sterilization without isopropyl alcohol at 55° C. (Example 4D); format: cell-based
# Description: An experiment similar to that of Example 4A was carried out using a higher temperature of 55°. Bacillus subtilis (niger) spores at levels of 1.32×10^6 (Log10=6.12) were inoculated for approximately 10 minutes in sterile cups. Solutions (50 ml) of 5 and 50 mM EDC in 10 mM TRIS, 0.85% NaCl, pH 6.5 were prewarmed to 55° C. and then rapidly added to the cups. The cups were incubated at 55° C. for 1 and 10 hours; the solutions were then diluted and filtered in order to collect microorganisms. The filters were rinsed with a 0.1% peptone water solution and incubated on TSA plates for up to 14 days. The plates are examined daily for growth. […] This can be extrapolated to achieving complete kill in 2-3 hours. […] Although this cannot be extrapolated to complete kill over a greater length of time because of the low level of EDC remaining after 10 hours, it is expected that sterilization treatment using a concentration at least about 15 mM EDC at 55° C. for 10 hours would result in complete kill.
# [2] = system: Mycobacterium Chelonae ATCC 35752; assay: Sterilization test, Mycobacterium chelonae in sterile cups at room temperature (Example 1); format: cell-based; parameters: key: (+) Indicates growth; (−) indicates no growth; details: 10 mM EDC+1 mM Sulfo-NHS
# Description: Porcine aortic roots are fixed by cross-linking according to the method described in U.S. Pat. No. 5,447,536. After fixation, the valves are stored in 10 mM HEPES, 0.85% NaCl, 20% isopropyl alcohol, pH 7.4, at 4° C. The sterility tests described in the following examples are in most cases conducted in the presence of bioprosthetic heart valve tissue; when such tissue is not present, the solutions are simply filtered through a 0.45 micron filter attached to a funnel (filter funnel). The filters are then rinsed with peptone water to eliminate residual chemicals on the membrane that may prevent growth of the organisms tested. Such membrane filters are then incubated on TSA plates at about 32° to 33° C., e.g. 32.5° C. When an aortic valve is inoculated with microorganisms for test purposes and then submitted to sterilization, the solution is filtered as described above. The aortic valve tissue is then washed for 20 minutes in a reciprocating shaker in the presence of peptone water containing Tween 80 in order to extract all indigenous spores or microorganisms from the tissue. This solution is filtered and then incubated as described above. All microbiological testing is performed in a biological laminar flow hood to prevent contamination. The shrinkage temperature and the proteolytic (collagenase and protease) degradation tests are conducted as previously described in the '536 patent. Resistance to calcification is assessed by subdermal implantation of sterilized leaflets and aortic wall coupons in young rats, as also described in the '536 U.S. patent.
# Mycobacterium Chelonae ATCC 35752 (˜10^5) was inoculated in sterile cups. A 10 mM HEPES, 0.85% NaCl, pH 6.5 solution containing 10 mM EDC and 1 mM Sulfo-NHS in the presence or absence of 20% isopropyl alcohol was maintained in contact with the bacteria in the cups for various periods of time (treatment duration). The cups were maintained at room temperature, and the solutions were then filtered. The filters were then incubated at about 32-33° C. for up to 6 weeks (incubation duration) using either Trypticase Soy Agar (TSA) plates or Trypticase Soy Broth (TSB). All inoculations were done in duplicate.
compound,measurement,setting,value
"CCN=C=NCCCN(C)C.Cl [EDC, 1-ethyl-3(3-dimethylaminopropyl)carbodiimide hydrochloride]",log reduction,"[1]; 5 mM EDC, 1 hour, 1.32×10^6 spores, no isopropyl alcohol",0.512
same,log reduction,"[1]; 5 mM EDC, 10 hours, 1.32×10^6 spores, no isopropyl alcohol",4.46
same,inactivation of spores,"[1]; 50 mM EDC, 10 hours, 1.32×10^6 spores, no isopropyl alcohol",effectively inactivated these spores
same,time to complete kill (extrapolated),"[1]; 50 mM EDC, extrapolated from the one-hour log reduction",2 to 3 h
same,log reduction,"[1]; 50 mM EDC, one hour, 1.32×10^6 spores, no isopropyl alcohol",3.04
same,growth,"[2]; 20% isopropyl alcohol, treatment 0 hour, incubation 3 Week, TSA","+,+"
same,growth,"[2]; 20% isopropyl alcohol, treatment 0 hour, incubation 3 Week, TSB","+,+"
same,growth,"[2]; 20% isopropyl alcohol, treatment 0 hour, incubation 4 Week, TSA","+,+"
same,growth,"[2]; 20% isopropyl alcohol, treatment 0 hour, incubation 4 Week, TSB","+,+"
same,growth,"[2]; 20% isopropyl alcohol, treatment 0 hour, incubation 6 Week, TSA","+,+"
same,growth,"[2]; 20% isopropyl alcohol, treatment 0 hour, incubation 6 Week, TSB","+,+"
same,growth,"[2]; no isopropyl alcohol, treatment 0 hour, incubation 1 Day, TSA","+,+"
same,growth,"[2]; no isopropyl alcohol, treatment 0 hour, incubation 1 Day, TSB","+,+"
same,growth,"[2]; no isopropyl alcohol, treatment 0 hour, incubation 1 Week, TSA","+,+"
same,growth,"[2]; no isopropyl alcohol, treatment 0 hour, incubation 1 Week, TSB","+,+"
same,growth,"[2]; no isopropyl alcohol, treatment 0 hour, incubation 3 Week, TSA","+,+"
same,growth,"[2]; no isopropyl alcohol, treatment 0 hour, incubation 3 Week, TSB","+,+"
same,growth,"[2]; no isopropyl alcohol, treatment 0 hour, incubation 4 Week, TSA","+,+"
same,growth,"[2]; no isopropyl alcohol, treatment 0 hour, incubation 4 Week, TSB","+,+"
same,growth,"[2]; no isopropyl alcohol, treatment 0 hour, incubation 6 Week, TSA","+,+"
same,growth,"[2]; no isopropyl alcohol, treatment 0 hour, incubation 6 Week, TSB","+,+"
same,growth,"[2]; no isopropyl alcohol, treatment 12 hours, incubation 1 Day, TSA","+,+"
same,growth,"[2]; no isopropyl alcohol, treatment 12 hours, incubation 1 Day, TSB","+,+"
same,growth,"[2]; no isopropyl alcohol, treatment 12 hours, incubation 1 Week, TSA","+,+"
same,growth,"[2]; no isopropyl alcohol, treatment 12 hours, incubation 1 Week, TSB","+,+"
same,growth,"[2]; no isopropyl alcohol, treatment 12 hours, incubation 3 Week, TSA","+,+"
same,growth,"[2]; no isopropyl alcohol, treatment 12 hours, incubation 3 Week, TSB","+,+"
same,growth,"[2]; no isopropyl alcohol, treatment 12 hours, incubation 4 Week, TSA","+,+"
same,growth,"[2]; no isopropyl alcohol, treatment 12 hours, incubation 4 Week, TSB","+,+"
same,growth,"[2]; no isopropyl alcohol, treatment 12 hours, incubation 6 Week, TSA","+,+"
same,growth,"[2]; no isopropyl alcohol, treatment 12 hours, incubation 6 Week, TSB","+,+"
same,growth,"[2]; no isopropyl alcohol, treatment 24 hours, incubation 1 Day, TSA","−,−"
same,growth,"[2]; no isopropyl alcohol, treatment 24 hours, incubation 1 Day, TSB","−,−"
same,growth,"[2]; no isopropyl alcohol, treatment 24 hours, incubation 1 Week, TSA","+,+"
same,growth,"[2]; no isopropyl alcohol, treatment 24 hours, incubation 1 Week, TSB","+,+"
same,growth,"[2]; no isopropyl alcohol, treatment 24 hours, incubation 3 Week, TSA","+,+"
same,growth,"[2]; no isopropyl alcohol, treatment 24 hours, incubation 3 Week, TSB","+,+"
same,growth,"[2]; no isopropyl alcohol, treatment 24 hours, incubation 4 Week, TSA","+,+"
same,growth,"[2]; no isopropyl alcohol, treatment 24 hours, incubation 4 Week, TSB","+,+"
same,growth,"[2]; no isopropyl alcohol, treatment 24 hours, incubation 6 Week, TSA","+,+"
same,growth,"[2]; no isopropyl alcohol, treatment 24 hours, incubation 6 Week, TSB","+,+"
same,growth,"[2]; no isopropyl alcohol, treatment 48 hours, incubation 1 Day, TSA","−,−"
same,growth,"[2]; no isopropyl alcohol, treatment 48 hours, incubation 1 Day, TSB","−,−"
same,growth,"[2]; no isopropyl alcohol, treatment 48 hours, incubation 1 Week, TSA","−,−"
same,growth,"[2]; no isopropyl alcohol, treatment 48 hours, incubation 1 Week, TSB","−,−"
same,growth,"[2]; no isopropyl alcohol, treatment 48 hours, incubation 3 Week, TSA","−,−"
same,growth,"[2]; no isopropyl alcohol, treatment 48 hours, incubation 3 Week, TSB","−,−"
same,growth,"[2]; no isopropyl alcohol, treatment 48 hours, incubation 4 Week, TSA",−
same,growth,"[2]; no isopropyl alcohol, treatment 48 hours, incubation 4 Week, TSB",+
same,growth,"[2]; no isopropyl alcohol, treatment 48 hours, incubation 6 Week, TSA",−
same,growth,"[2]; no isopropyl alcohol, treatment 48 hours, incubation 6 Week, TSB",+
same,growth,"[2]; no isopropyl alcohol, treatment 72 hours, incubation 1 Day, TSA","−,−"
same,growth,"[2]; no isopropyl alcohol, treatment 72 hours, incubation 1 Day, TSB","−,−"
same,growth,"[2]; no isopropyl alcohol, treatment 72 hours, incubation 1 Week, TSA","−,−"
same,growth,"[2]; no isopropyl alcohol, treatment 72 hours, incubation 1 Week, TSB","−,−"
same,growth,"[2]; no isopropyl alcohol, treatment 72 hours, incubation 3 Week, TSA","−,−"
same,growth,"[2]; no isopropyl alcohol, treatment 72 hours, incubation 3 Week, TSB","−,−"
same,growth,"[2]; no isopropyl alcohol, treatment 72 hours, incubation 4 Week, TSA","−,−"
same,growth,"[2]; no isopropyl alcohol, treatment 72 hours, incubation 4 Week, TSB","−,−"
same,growth,"[2]; no isopropyl alcohol, treatment 72 hours, incubation 6 Week, TSA",−
same,growth,"[2]; no isopropyl alcohol, treatment 72 hours, incubation 6 Week, TSB",+
